Earlier results, collected in patent publication US20230405042A1, “Compositions to Modify Intestinal Nutrient Absorption, Methods of Making and Uses Thereof” (McMaster University, priority 2022, published 2023).

Test system: rodents
Details: oral delivery or injection in rodents

Row | Structure (SMILES) | Liver glycogen formation
1 | C[C@@H](O)C(=O)O [D-lactate] | leads to glycogen deposition in the liver
2 | C[C@H](O)C(=O)O [L-lactate] | hardly forms any liver glycogen
